Experimental data as given in patent US6906097B2, “8-azaprostaglandin analogs as agents for lowering intraocular pressure” (Allergan, Inc., priority 2002, dated 2005).
pEC50, pIC50: −log10 of the molar value.

Experiments:
[1] = target: T1, hEP1 (Homo sapiens, UniProt P34995); assay: Radioligand binding, hEP1; conditions: [3H]PGE2 competition
T1 construct: expressed in transfected cells
T1 sequence (P34995 1-402): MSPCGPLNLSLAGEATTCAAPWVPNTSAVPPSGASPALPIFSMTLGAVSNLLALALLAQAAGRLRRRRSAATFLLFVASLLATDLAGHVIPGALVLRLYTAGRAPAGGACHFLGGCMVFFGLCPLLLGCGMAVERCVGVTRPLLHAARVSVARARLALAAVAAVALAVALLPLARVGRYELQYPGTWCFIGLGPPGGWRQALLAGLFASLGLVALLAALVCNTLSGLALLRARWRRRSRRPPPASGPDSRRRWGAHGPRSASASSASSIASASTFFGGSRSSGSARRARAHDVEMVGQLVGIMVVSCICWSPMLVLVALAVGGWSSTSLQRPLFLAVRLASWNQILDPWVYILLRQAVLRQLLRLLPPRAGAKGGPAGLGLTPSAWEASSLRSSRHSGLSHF
Method: (§1) Human Recombinant EP1, EP2, EP3, EP4, FP, TP, IP and DP Receptors: Stable Transfectants
Plasmids encoding the human EP1, EP2, EP3, EP4, FP, TP, IP and DP receptors were prepared by cloning the respective coding sequences into the eukaryotic expression vector pCEP4 (Invitrogen). The pCEP4 vector contains an Epstein Barr virus (EBV) origin of replication, which permits episomal replication in primate cell lines expressing EBV nuclear antigen (EBNA-1). It also contains a hygromycin resistance gene that is used for eukaryotic selection. The cells employed for stable transfection were human embryonic kidney cells (HEK-293) that were transfected with and express the EBNA-1 protein. These HEK-293-EBNA cells (Invitrogen) were grown in medium containing Geneticin (G418) to maintain expression of the EBNA-1 protein. […]
Radioligand binding studies on plasma membrane fractions prepared for cells stably transfected with the cat or human receptor were performed as follows. […] The pellet was then resuspended in TME buffer to provide a final protein concentration of 1 mg/ml, as determined by Bio-Rad assay. […]
The binding of [^3H](N) PGE2 (specific activity 165 Ci/mmol) was determined in duplicate and in at least 3 separate experiments. […] Competition studies were performed using a final concentration of 2.5 or 5 nM [^3H](N) PGE2 and non-specific binding was determined with 10^−5 M unlabelled PGE2.

[2] = target: T2, hTP (Homo sapiens, UniProt P21731); assay: Functional data, human recombinant TP receptor stable transfectants; format: cell-based
T2 construct: expressed in transfected cells
T2 sequence (P21731 1-343): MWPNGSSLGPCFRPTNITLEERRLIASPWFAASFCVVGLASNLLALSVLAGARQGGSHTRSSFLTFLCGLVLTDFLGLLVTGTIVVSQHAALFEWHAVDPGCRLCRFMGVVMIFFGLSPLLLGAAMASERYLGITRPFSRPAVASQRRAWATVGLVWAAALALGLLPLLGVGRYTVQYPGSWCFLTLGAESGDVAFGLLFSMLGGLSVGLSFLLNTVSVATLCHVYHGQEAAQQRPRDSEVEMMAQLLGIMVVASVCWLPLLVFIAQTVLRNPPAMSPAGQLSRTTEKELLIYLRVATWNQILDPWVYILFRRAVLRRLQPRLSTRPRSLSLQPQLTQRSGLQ
Method: as §1
Plasmids encoding the human EP1, EP2, EP3, EP4, FP, TP, IP and DP receptors were prepared by cloning the respective coding sequences into the eukaryotic expression vector pCEP4 (Invitrogen). The pCEP4 vector contains an Epstein Barr virus (EBV) origin of replication, which permits episomal replication in primate cell lines expressing EBV nuclear antigen (EBNA-1). It also contains a hygromycin resistance gene that is used for eukaryotic selection. The cells employed for stable transfection were human embryonic kidney cells (HEK-293) that were transfected with and express the EBNA-1 protein. These HEK-293-EBNA cells (Invitrogen) were grown in medium containing Geneticin (G418) to maintain expression of the EBNA-1 protein. HEK-293 cells were grown in DMEM with 10% fetal bovine serum (FBS), 250 μg ml^−1 G418 (Life Technologies) and 200 μg ml^−1 gentamicin or penicillin/streptomycin.
For transfection, the cells were grown to 50-60% confluency on 10 cm plates. The plasmid pCEP4 incorporating cDNA inserts for the respective human prostanoid receptor (20 μg) was added to 500 μl of 250 mM CaCl2. HEPES buffered saline×2 (2×HBS, 280 mM NaCl, 20 mM HEPES acid, 1.5 mM Na2 HPO4, pH 7.05-7.12) was then added dropwise to a total of 500 μl, with continuous vortexing at room temperature. After 30 min, 9 ml DMEM were added to the mixture. The DNA/DMEM/calcium phosphate mixture was then added to the cells, which had been previously rinsed with 10 ml PBS. The cells were then incubated for 5 hr at 37° C. in humidified 95% air/5% CO2. The calcium phosphate solution was then removed and the cells were treated with 10% glycerol in DMEM for 2 min. The glycerol solution was then replaced by DMEM with 10% FBS. The cells were incubated overnight and the medium was replaced by DMEM/10% FBS containing 250 μg ml^−1 G418 and penicillin/streptomycin. The following day hygromycin B was added to a final concentration of 200 μg ml^−1.
Ten days after transfection, hygromycin B resistant clones were individually selected and transferred to a separate well on a 24 well plate. At confluence each clone was transferred to one well of a 6 well plate, and then expanded in a 10 cm dish. Cells were maintained under continuous hygromycin selection until use.

O=C(O)CCCCCCN1C(=O)CC[C@@H]1CCC(O)Cc1cccc(Cl)c1 (stereo partly drawn) [Example 1, 7-[2S-[3R-Hydroxy-4-(chloro-phenyl)-butyl]-5-oxo-pyrrolidin-1-yl]-heptanoic acid]
pIC50 [1]: 5.24 | pEC50 [2]: < 5.00
